This passage reports nuclear translocation (1=yes, 0=no) results from PubChem BioAssay AID504471 (NMMLSC, 2011).

The target in this experiment is Retrograde regulation protein 3 (Saccharomyces cerevisiae (strain ATCC 204508 / S288c)) (UniProt P38165). The experiment is described as follows: Rtg3-GFP nuclear translocation in yeast, SAR follow-up, yeast TOR pathway modulator project, imaging, fluorescence microscopy, S288c (AID 504471). To be noted: S. cerevisiae Rtg3-GFP, nuclear translocation by microscopy; at 30 µM; stronger effect = higher value.
With `CNc1nc(N)c([N+](=O)[O-])c(Nc2ccccc2)n1`, the nuclear translocation (1=yes, 0=no) is 1.
Consider `CNc1nc(N)c([N+](=O)[O-])c(Nc2cccc(Cl)c2)n1`, for which the nuclear translocation (1=yes, 0=no) was 1.
Regarding `CNc1nc(N)c([N+](=O)[O-])c(Nc2cccc(F)c2)n1`, the nuclear translocation (1=yes, 0=no) was 1.
For `CO[C@H]1C[C@@H]2CC[C@@H](C)[C@@](O)(O2)C(=O)C(=O)N2CCCC[C@H]2C(=O)O[C@H]([C@H](C)C[C@@H]2CC[C@@H](O)[C@H](OC)C2)CC(=O)[C@H](C)/C=C(\C)[C@@H](O)[C@@H](OC)C(=O)[C@H](C)C[C@H](C)/C=C/C=C/C=C/1C`, the nuclear translocation (1=yes, 0=no) was 1.
